{
  "source": "ChEMBL document CHEMBL6120994",
  "about": "“Unravelling the potential of natural chelating agents in the control of Staphylococcus aureus and Pseudomonas aeruginosa biofilms” (Eur J Med Chem, 2025)",
  "key": {"Staphylococcus aureus": {"system": "Staphylococcus aureus", "test": "Antibiotic adjuvant activity against preestablished 24 hr-old Staphylococcus aureus CECT 976 assessed as potentiation of tobramycin-induced antibiofilm activity by measuring log reduction of CFU of biofilm cells at 10000 ug/ml in presence of 1/4XMIC to MIC tobramycin measured after 24 hrs by visual counting method", "type": "functional", "details": "dose 10000 µg/ml"}, "Pseudomonas aeruginosa": {"system": "Pseudomonas aeruginosa", "test": "Antibiofilm activity against Pseudomonas aeruginosa ATCC 10145 assessed as reduction in biomass production at 1000 ug/ml measured after 24 hrs by crystal violet staining method", "type": "functional"}},
  "data": [
    {"molecule": "Cc1occc(=O)c1O", "note": "[MALTOL]", "values": [
      {"measurement": "Activity", "setting": "Staphylococcus aureus", "result": 2, "unit": "log10CFU/cm^-2"},
      {"measurement": "inhibition at 1000 µg/mL", "setting": "Pseudomonas aeruginosa", "result": 40, "unit": "%"}
    ]}
  ]
}
